The results in this text go back to article PMC9517990 (Communications Biology, 2022).

The test system of experiment [1] is A/South Korea/90207/2020 NA-H275Y + PA-I38T virus. In kind it is cell-based, influenza A(H1N1)pdm09 virus.
Experiment [2] has as its system A/South Korea/90207/2020 PA-I38T virus. The format is cell-based, influenza A(H1N1)pdm09 virus.
For experiment [3], the system named is A/South Korea/90207/2020 NA-H275Y virus. In kind it is cell-based, influenza A(H1N1)pdm09 virus.
Experiment [4] has as its target neuraminidase of A/South Korea/90207/2020 PA-I38T virus (Influenza A virus (A(H1N1)pdm09), UniProt A0A0X9QTS2). The format is biochemical.
The target in experiment [5] is neuraminidase of A/South Korea/90207/2020 NA-H275Y virus (Influenza A virus (A(H1N1)pdm09), UniProt A0A0X9QTS2, H275Y). The format is biochemical.
In experiment [6] the target is neuraminidase of A/South Korea/90207/2020 NA-H275Y + PA-I38T virus (Influenza A virus (A(H1N1)pdm09), UniProt A0A0X9QTS2, H275Y). The format is biochemical.
The mark [7] stands for this setting: read-out: EC50 nM ± SD (column headed IC50; footnote: EC50).

Take `O=C1c2c(O)c(=O)ccn2N([C@@H]2c3ccccc3SCc3c2ccc(F)c3F)[C@@H]2COCCN12` [Baloxavir, Baloxavir acid]: the “EC50 fold change compared to WT” value in experiment [1] is reported as 190 fold; in experiment [2], 373 fold; in experiment [3], 1 fold. Besides, the EC50 in experiment [1] (setting [7]) was found to be 194 nM; in experiment [2] (setting [7]) it was 380 nM; in experiment [3] (setting [7]), 1.2 ± 0.3 nM.
Consider `CCC(CC)[C@H](NC(C)=O)[C@@H]1[C@H](O)[C@@H](C(=O)O)C[C@H]1N=C(N)N` [Peramivir, peramivir], for which the half-inhibitory concentration (IC50) was 0.26 nM in experiment [4], 16.8 ± 3.1 nM in experiment [5] and 16.2 nM in experiment [6]. In experiment [4], the “IC50 fold change compared to WT” value worked out at 2 fold.
